The values below come from patent US20060009433A1, “Neuroprotective spirostenol pharmaceutical compositions” (priority 2003, published 2006).

The target of assay [1] is T1, Aβ1-42 (Homo sapiens, UniProt P05067). Kind of assay: Aβ aggregation assay (SDS-PAGE, immunoblot). In kind it is biochemical. Particulars: 50 μM Aβ1-42; 24 hours at 37° C. The method, then:
At the end of the incubation, proteins were separated by SDS-PAGE on 4-20% gradient acrylamide-bis-acrylamide gel at 125V for 2 hours. Proteins were visualized by coomassie blue staining. Aβ species were identified by immunoblot analysis. Yao, Z. et al., Brain Res. (2001).
The ability of 22R-hydroxycholesterol to alter Aβ aggregation was also examined. […] At the end of the incubation proteins were separated by SDS-PAGE and visualized by coomassie blue (FIG. 6A). Aβ species formed were identified by immunoblotting using an anti-Aβ polyclonal antiserum (FIG. 6B). Aβ aggregation can be seen on the top of the gel and it is absent in control-media lane. […] A 100 kDa band recognized by the Aβ polyclonal antiserum used in all samples, including control-media, probably reflects non-specific binding of the antiserum.
In general terms: In western blotting, separated proteins are transferred to a membrane and probed.

The test system of the next assay is NT2 cells. Kind of assay: Expression of GFRα receptor proteins in NT2 cells (immunoblot). The assay is classed as cell-based, human. Particulars: 25 μM; 6 days. The method, then: Cells were fixed with newly prepared 3.7% formaldehyde for 15 minutes and blocked by blocking reagent (Zymed Laboratories, San Francisco, Calif., USA). Inuunostaining was performed using rabbit anti-NF200, anti-NF145 and anti-NF70 (all at 1:200), and goat anti-GFRα1, anti-GFRα2 and anti-GFRα3 (all at 1:100); Santa Cruz Biotechnology (Santa Cruz, Calif., USA). All antibodies were used at 200 μg/ml. After overnight incubation at 4° C., the immunoreactivity was detected using horseradish peroxidase-conjugated anti-rabbit or anti-mouse IgG for 1 hour at room temperature and visualized using AEC.
Cells were then washed with phosphate-buffered saline (PBS) and lysed with loading buffer. Proteins were resolved by sodium dodecyl sulfate polyacrylamide gel electrophoresis (SDS-PAGE) on 4-20% gradient acrylamide-bis-acrylamide gel at 125 V for 2 hours and electrotransferred onto nitrocellulose membranes. After blocking with 5% nonfat milk, the membranes were subjected to immunoblot analysis by incubation overnight with rabbit anti-NF200, anti-NF145 and anti-NF70 (all at 1:4000) (Chemicon International, Temecula, Calif., USA) and goat anti-GFRα1, anti-GFRα2 and anti-GFRα3 (all at 1:500) (200 μg/ml; Santa Cruz Biotechnology, Inc., Santa Cruz, Calif., USA), goat anti-rabbit or rabbit anti-goat IgG-horseradish peroxidase being used as the secondary antibody (1:5000) (Zymed Laboratories, San Francisco, Calif., USA). Protein bands were visualized using ECL reagents (Amersham Pharmacia Biotech, Piscataway, N.J., USA). Image-densitometric analyses of the immunoreactive protein bands were performed using OptiQuant-image analysis software (Packard BioScience, Meriden, Conn., USA). Glyceraldehyde-3-phosphate dehydrogenase (GAPPH) served as an internal standard.

The target in assay [2] is T1, Aβ1-42. Kind of assay: Cholesterol-protein binding blot assay (CPBBA), Aβ1-42. Particulars: for inhibition of binding of radiolabeled 22R-hydroxycholesterol to Aβ1-42: 50 μM Aβ1-42. The method, then:
At the end of the incubation time, samples were separated by 1.5% agarose (Type I-B) gel electrophoresis and transferred to nitrocellulose membrane (Schleicher & Schuell, Keene, N.H.) in 10×SSC buffer. The membrane was exposed to tritium-sensitive screen and analyzed by phosphoimaging using the Cyclone Storage phosphor system (Packard BioScience, Meridien, Conn.). Image-densitometric analysis was performed using the OptiQuant software (Packard). […] Low molecular weight unincorporated 22i-hydroxycholesterol is separated and eliminated during electrophoresis.
The membrane with the 22R-hydroxycholesterol-Aβ peptide complexes was then used to examine Aβ levels. Membranes were blocked by incubating the nitrocellulose in 5% milk and treated for immunodetection of Aβ using ECL reagents (Amersham-Pharmacia, Piscataway, N.J.). Li et al., Proc. Natl. Acad. Sci. USA, 98, 1267-1272 (2001). Anti-Aβ antibody and secondary antibodies were used at 0.2 μg/ml and 1:5000 dilution, respectively.

In assay [3] the test system is PC12 cells (rat pheochromocytoma neurons). Kind of assay: MTT cytotoxicity assay, Aβ-induced neurotoxicity in PC12 cells (Example II). In kind it is cell-based. Particulars: MTT; compounds at 30 and 50 μM; 72 hours. The method, then:
PC12 cells (rat pheochromocytoma neurons) from ATCC (Manassas, Va.) were cultured at 37° C. and 5% CO2 in RPMI 1640 medium devoid of glutamine and supplemented with 10% fetal bovine serum and 5% horse serum. Yao Z, Drieu K and Papadopoulos V., The Gingko biloba extract EGb 761 rescues PC12 neuronal cells from β-amyloid-induced cell death by inhibiting the formation of (3-amyloid-derived diffusible neurotoxic ligands, Brain Res, 889, 181-190 (2001). Cells were seeded in 96-well plates (8×10^4 cells/well). After an overnight period of incubation, increasing concentrations of aggregated Aβ (0.1, 1 and 10 μM) were added to the cells in the presence or absence of the indicated concentrations of the SP compounds to be tested. After 72-hours incubation time various parameters, markers of cell viability, were determined. Mouse MA-10 tumor Leydig cells were maintained at 37° C. in DMEM/Ham's F12 (Biofluids, Rockville, Md.) medium supplemented with 5% heat-inactivated fetal calf serum and 2.5% horse serum in 5% CO2. Cells were plated on 96-well plates at the density of 2.5×10^4 cells/well for overnight. The cells were stimulated with the indicated concentrations of the various SP compounds in 0.2 ml/well serum-free medium for 2 hours. The culture medium was collected and tested for progesterone production by radioimmunoassay.
The cellular toxicity of Aβ was assessed using the 3-(4,5-dimethylthiazol-2-yl)-2,5-diphenyl tetrazolium bromide (MTT) assay (Trevigen, Gaithersburg, Md.). Briefly, 10 μl of the MTT solution were added to the cells cultured in 100 μl medium. After an incubation period of 4 hours, 100 μl of detergent were added and cells were incubated overnight at 37° C. Formazan blue formation was quantified at 600 nm and 690 nm using the Victor quantitative detection spectrophotometer (EGG-Wallac, Gaithersburg, Md.) and the results expressed as (DO600-DO690). […] Liu Y and Schubert D, Steroid hormones block amyloid fibril-induced 3-(4,5-dimethylthiazol-2-yl)-2,5-diphenyltetrazolium bromide (MTT) formazan exocytosis: relationship to neurotoxicity, J. Neurochem., 19, 1639-1662 (1998). For that reason, additional cytotoxicity and cell viability assays were used.
Yao et al., J. Neurochem., 83, 1110-1119 (2002); and Yao et al., The Gingko biloba extract EGb 761 rescues PC12 neuronal cells from β-amyloid-induced cell death by inhibiting the formation of β-amyloid-derived diffusible neurotoxic ligands, Brain Res., 889, 181-190 (2001). To stay close to the concentrations of Aβ present in AD brain, 0.1-10 μM concentrations of Aβ were used. The compounds tested for their neuroprotective properties were examined at 30 and 50 μM concentrations (FIGS. 9-15).

T1 sequence (P05067 672-713): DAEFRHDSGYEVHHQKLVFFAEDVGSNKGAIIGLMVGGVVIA

Consider `CC(C)CC[C@@H](O)[C@@H](C)[C@H]1CC[C@H]2[C@@H]3CC=C4C[C@@H](O)CC[C@]4(C)[C@H]3CC[C@]12C` [SP222, 22R-hydroxycholesterol], for which, on Aβ1-42 [1], the “effect on Aβ aggregation” value is listed as “did not affect Aβ aggregation”. In addition, in the assay with NT2 cells, the “decrease of GFRα3 protein expression” value is “about 16%”, the “expression of GFRα1” value is given as “no significant effect” and the “increase of GFRα2 protein expression over the control level” value is recorded as 45%. For the same compound, at Aβ1-42 [2] (50 μM unlabeled), the “inhibition of binding of radiolabeled 22R-hydroxycholesterol to Aβ1-42” value is listed as 50%. At Aβ1-42 [2] (200 μM unlabeled), the “inhibition of binding of radiolabeled 22R-hydroxycholesterol to Aβ1-42” value is 90%. The “binding to Aβ1-42” value at Aβ1-42 [2] (CPBBA, native conditions) was “binds”. Moreover, in assay [3], the “neuroprotection against 0.1 μM Aβ-induced neurotoxicity” value is on record as “protects”, the “neuroprotection against 1 μM Aβ-induced neurotoxicity” value is “protects” and the “neuroprotection against 10 μM Aβ-induced neurotoxicity” value is given as “limited neuroprotection”.
